# Results reported in US20090311344A1, “Dosing Regimen” (priority 2008, published 2009).
# Test: Multiple dose study in cancer subjects: treatment-emergent (serious) adverse events
# Method: 46 subjects with cancer receiving platinum-based therapies were enrolled into 3 cohorts (N=16 in Cohort 1, 14 in Cohort 2, and 16 in Cohort 3). The subjects received the TPO mimetic peptide compound or placebo within 2 hours prior to the platinum-based chemotherapy on Day 1 of the first 2 cycles with a 21-day interval between each cycle. In addition to the Day 1 administration, gemcitabine administration was permitted on Day 8 of each cycle. Other chemotherapy medications were limited to dosing on Day 1 of each cycle only. Subjects were followed up for a total of 4 cycles of chemotherapy. Chemotherapy regimen continued beyond the first 4 cycles as per standard of care therapy. In the first cohort, 12 subjects received 1.5 μg/kg the TPO mimetic peptide compound and 4 subjects received placebo. In the second cohort 10 subjects received 3.0 μg/kg the TPO mimetic peptide compound and 4 subjects received placebo. In the third cohort, 12 subjects received 2.25 μg/kg the TPO mimetic peptide compound and 4 subjects received placebo. […] Therefore, a third cohort at a lower dose (2.25 μg/kg) was added to collect additional safety, tolerability, PD, and PK data.
substance,measurement,setting,value
Methoxypolyethyleneglycol20000-propionyl-L-Isoleucyl-L-Glutamyl-Glycyl-L-Prolyl-L-Threonyl-L-Leucyl-L-Arginyl-L-Glutaminyl-L-2-Naphthylalanyl-L-Leucyl-L-Alanyl-L-Alanyl-L-Arginyl-Sarcosyl-Ne-(methoxypolyethyleneglycol20000-propionyl-L-Isoleucyl-L-Glutamyl-Glycyl-L-Prolyl-L-Threonyl-L-Leucyl-L-Arginyl-L-Glutaminyl-L-2-Naphthylalanyl-L-Leucyl-L-Alanyl-L-Alanyl-L-Arginyl-Sarcosyl-)-Lysinamide [TPO mimetic peptide compound],Adverse event: Musculoskeletal and connective tissue disorders,"2.25 ug/kg, n of N = 12",1
same,Adverse event: Nausea,"2.25 ug/kg, n of N = 12",2
same,"Adverse event: Neoplasms benign, malignant and unspecified (incl cysts and polyps)","2.25 ug/kg, n of N = 12",0
same,Adverse event: Nervous system disorders,"2.25 ug/kg, n of N = 12",3
same,Adverse event: Neuropathy peripheral,"2.25 ug/kg, n of N = 12",0
same,Adverse event: Neutropenia,"2.25 ug/kg, n of N = 12",4
same,Adverse event: Oedema,"2.25 ug/kg, n of N = 12",1
same,Adverse event: Oedema peripheral,"2.25 ug/kg, n of N = 12",0
same,Adverse event: Pain,"2.25 ug/kg, n of N = 12",0
same,Adverse event: Pain in extremity,"2.25 ug/kg, n of N = 12",1
same,Adverse event: Paraesthesia,"2.25 ug/kg, n of N = 12",0
same,Adverse event: Peripheral motor neuropathy,"2.25 ug/kg, n of N = 12",0
same,Adverse event: Peripheral sensory neuropathy,"2.25 ug/kg, n of N = 12",0
same,Adverse event: Platelet count decreased,"2.25 ug/kg, n of N = 12",0
same,Adverse event: Psychiatric disorders,"2.25 ug/kg, n of N = 12",2
same,Adverse event: Pyrexia,"2.25 ug/kg, n of N = 12",3
same,Adverse event: Rash,"2.25 ug/kg, n of N = 12",0
same,Adverse event: Renal and urinary disorders,"2.25 ug/kg, n of N = 12",1
same,Adverse event: Respiratory failure,"2.25 ug/kg, n of N = 12",0
same,"Adverse event: Respiratory, thoracic and mediastinal disorders","2.25 ug/kg, n of N = 12",3
same,Adverse event: Skin and subcutaneous tissue disorders,"2.25 ug/kg, n of N = 12",3
same,Adverse event: Stomatitis,"2.25 ug/kg, n of N = 12",0
same,Adverse event: Tachycardia,"2.25 ug/kg, n of N = 12",0
same,Adverse event: Thrombocythaemia,"2.25 ug/kg, n of N = 12",0
same,Adverse event: Thrombocytopenia,"2.25 ug/kg, n of N = 12",0
same,Adverse event: Tinnitus,"2.25 ug/kg, n of N = 12",0
same,Adverse event: Vascular disorders,"2.25 ug/kg, n of N = 12",2
same,Adverse event: Vomiting,"2.25 ug/kg, n of N = 12",6
same,Adverse event: Weight decreased,"2.25 ug/kg, n of N = 12",0
same,Serious adverse event: Abdominal pain,"2.25 ug/kg, n of N = 12",0
same,Serious adverse event: Acute myocardial infarction,"2.25 ug/kg, n of N = 12",0
same,Serious adverse event: Anorexia,"2.25 ug/kg, n of N = 12",0
same,Serious adverse event: Atrial fibrillation,"2.25 ug/kg, n of N = 12",0
same,Serious adverse event: Blood and lymphatic system disorders,"2.25 ug/kg, n of N = 12",1
same,Serious adverse event: Blood creatinine increased,"2.25 ug/kg, n of N = 12",1
same,Serious adverse event: Cardiac disorders,"2.25 ug/kg, n of N = 12",0
same,Serious adverse event: Cardiac failure,"2.25 ug/kg, n of N = 12",0
same,Serious adverse event: Dehydration,"2.25 ug/kg, n of N = 12",1
same,Serious adverse event: Dyspnoea,"2.25 ug/kg, n of N = 12",1
same,Serious adverse event: Fatigue,"2.25 ug/kg, n of N = 12",0
same,Serious adverse event: Febrile neutropenia,"2.25 ug/kg, n of N = 12",1
same,Serious adverse event: Gastrointestinal disorders,"2.25 ug/kg, n of N = 12",1
same,Serious adverse event: General disorders and administration site conditions,"2.25 ug/kg, n of N = 12",0
same,Serious adverse event: Hyponatraemia,"2.25 ug/kg, n of N = 12",2
same,Serious adverse event: Investigations,"2.25 ug/kg, n of N = 12",1
same,Serious adverse event: Lung abscess,"2.25 ug/kg, n of N = 12",0
same,Serious adverse event: Metabolism and nutrition disorders,"2.25 ug/kg, n of N = 12",2
same,Serious adverse event: Nausea,"2.25 ug/kg, n of N = 12",0
same,Serious adverse event: Neutropenia,"2.25 ug/kg, n of N = 12",0
same,Serious adverse event: Pain,"2.25 ug/kg, n of N = 12",0
same,Serious adverse event: Pyrexia,"2.25 ug/kg, n of N = 12",0
same,Serious adverse event: Respiratory failure,"2.25 ug/kg, n of N = 12",0
same,"Serious adverse event: Respiratory, thoracic and mediastinal disorders","2.25 ug/kg, n of N = 12",1
same,Serious adverse event: Thrombocythaemia,"2.25 ug/kg, n of N = 12",0
same,Serious adverse event: Thrombocytopenia,"2.25 ug/kg, n of N = 12",0
same,Serious adverse event: Vomiting,"2.25 ug/kg, n of N = 12",1
same,Total no. subjects WITH ADVERSE EVENTS,"2.25 ug/kg, n of N = 12",10
same,Total no. subjects WITH SERIOUS ADVERSE EVENTS,"2.25 ug/kg, n of N = 12",3
same,Adverse event: Abdominal pain,"3.0 ug/kg, n of N = 10",2
same,Adverse event: Acute myocardial infarction,"3.0 ug/kg, n of N = 10",0
same,Adverse event: Alanine aminotransferase increased,"3.0 ug/kg, n of N = 10",1
same,Adverse event: Alopecia,"3.0 ug/kg, n of N = 10",2
same,Adverse event: Anemia,"3.0 ug/kg, n of N = 10",1
same,Adverse event: Anorexia,"3.0 ug/kg, n of N = 10",2
same,Adverse event: Anxiety,"3.0 ug/kg, n of N = 10",0
same,Adverse event: Arthralgia,"3.0 ug/kg, n of N = 10",1
same,Adverse event: Aspartate aminotransferase increased,"3.0 ug/kg, n of N = 10",1
same,Adverse event: Atrial fibrillation,"3.0 ug/kg, n of N = 10",0
same,Adverse event: Azotaemia,"3.0 ug/kg, n of N = 10",0
same,Adverse event: Blood and lymphatic system disorders,"3.0 ug/kg, n of N = 10",3
same,Adverse event: Blood creatinine increased,"3.0 ug/kg, n of N = 10",1
same,Adverse event: C-reactive protein increased,"3.0 ug/kg, n of N = 10",1
same,Adverse event: Cancer pain,"3.0 ug/kg, n of N = 10",0
same,Adverse event: Cardiac disorders,"3.0 ug/kg, n of N = 10",0
same,Adverse event: Cardiac failure,"3.0 ug/kg, n of N = 10",0
same,Adverse event: Chills,"3.0 ug/kg, n of N = 10",0
same,Adverse event: Confusional state,"3.0 ug/kg, n of N = 10",0
same,Adverse event: Constipation,"3.0 ug/kg, n of N = 10",4
same,Adverse event: Cough,"3.0 ug/kg, n of N = 10",0
same,Adverse event: Dehydration,"3.0 ug/kg, n of N = 10",1
same,Adverse event: Dermatitis acneiform,"3.0 ug/kg, n of N = 10",0
same,Adverse event: Diabetes mellitus non-insulin-dependent,"3.0 ug/kg, n of N = 10",0
same,Adverse event: Diarrhea,"3.0 ug/kg, n of N = 10",1
same,Adverse event: Dizziness,"3.0 ug/kg, n of N = 10",0
same,Adverse event: Dry skin,"3.0 ug/kg, n of N = 10",1
same,Adverse event: Dyspepsia,"3.0 ug/kg, n of N = 10",0
same,Adverse event: Dyspnoea,"3.0 ug/kg, n of N = 10",0
same,Adverse event: Ear and labyrinth disorders,"3.0 ug/kg, n of N = 10",1
same,Adverse event: Epistaxis,"3.0 ug/kg, n of N = 10",1
same,Adverse event: Eructation,"3.0 ug/kg, n of N = 10",0
